Laboratory results as given in PubChem BioAssay (NCI).
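Interpolation was linear, between the two tested concentrations surrounding the appropriate level; five concentrations were tested over 48 hours in 96-well plates. GI50: concentration for 50% inhibition of growth. Definition used: TGI = concentration required for complete inhibition of growth.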

How the values were obtained:
Assay in all cases: DTP human tumour cell line panel, 48 h
786-0 renal = tested on: 786-0 renal
MDA-MB-435 = tested on: MDA-MB-435
NCI-H23 lung = tested on: NCI-H23 lung
OVCAR-5 ovarian = tested on: OVCAR-5 ovarian
RXF 393 renal = tested on: RXF 393 renal
SF-268 CNS = tested on: SF-268 CNS
SK-MEL-5 melanoma = tested on: SK-MEL-5 melanoma
UACC-257 melanoma = tested on: UACC-257 melanoma

## Cc1c(NC(=O)Nc2c(Cl)cccc2Cl)c(=O)n(-c2ccccc2)n1C
786-0 renal
  TGI: > 100 µM
MDA-MB-435
  TGI: > 100 µM
NCI-H23 lung
  TGI: > 100 µM
OVCAR-5 ovarian
  TGI: > 100 µM
RXF 393 renal
  TGI: > 100 µM
SF-268 CNS
  TGI: > 100 µM
SK-MEL-5 melanoma
  TGI: > 100 µM
UACC-257 melanoma
  TGI: > 100 µM

## CC(C)c1[nH]nc2c(NCc3ccc(-c4ccccn4)cc3)nc(SCCN(C)C)nc12
786-0 renal
  GI50: 0.0767 µM
  TGI: 6.06 µM
MDA-MB-435
  GI50: < 17.6 nM
  TGI: 0.797 µM
NCI-H23 lung
  GI50: 64.6 nM
  TGI: 0.598 µM
OVCAR-5 ovarian
  GI50: 0.0572 µM
  TGI: 11.2 µM
RXF 393 renal
  GI50: < 0.0136 µM
  TGI: 0.0354 µM
SF-268 CNS
  GI50: < 0.018 µM
  TGI: 3.68 µM
SK-MEL-5 melanoma
  GI50: 0.153 µM
  TGI: 0.552 µM
UACC-257 melanoma
  GI50: 17 nM
  TGI: 0.0826 µM

## C#CCOc1cccc(Nc2ncnc3cc(NC(=O)C=C)ccc23)c1
786-0 renal
  GI50: 5.97 µM
  TGI: 48.1 µM
MDA-MB-435
  GI50: 2080 nM
  TGI: > 100 µM
NCI-H23 lung
  GI50: 26600 nM
  TGI: > 100 µM
OVCAR-5 ovarian
  GI50: 14.1 µM
  TGI: > 100 µM
RXF 393 renal
  GI50: 2.44 µM
  TGI: 13.3 µM
SF-268 CNS
  GI50: 12.6 µM
  TGI: > 100 µM
SK-MEL-5 melanoma
  GI50: 17.3 µM
  TGI: > 100 µM
UACC-257 melanoma
  GI50: 32300 nM
  TGI: > 100 µM

## CC(=O)CCc1ccc(Oc2c3c(nc4ccccc24)OCC3)cc1
786-0 renal
  GI50: > 100 µM
  TGI: > 100 µM
NCI-H23 lung
  GI50: 35300 nM
  TGI: > 100 µM
OVCAR-5 ovarian
  GI50: 77 µM
  TGI: > 100 µM
RXF 393 renal
  GI50: 22.3 µM
  TGI: > 100 µM
SF-268 CNS
  GI50: 27.5 µM
  TGI: > 100 µM
SK-MEL-5 melanoma
  GI50: 16.6 µM
  TGI: 55.1 µM
UACC-257 melanoma
  GI50: 3120 nM
  TGI: 30.2 µM

## CCC[n+]1cc2cc3c(cc2c2c1-c1cc4c(cc1C2)OCO4)OCO3 (tested in a mixture with another compound)
786-0 renal
  GI50: 0.46 µM
  TGI: 10 µM
MDA-MB-435
  GI50: 785 nM
  TGI: 2.29 µM
NCI-H23 lung
  GI50: 679 nM
  TGI: 3.02 µM
OVCAR-5 ovarian
  GI50: 8.85 µM
  TGI: 29 µM
SF-268 CNS
  GI50: 0.0649 µM
  TGI: 1.95 µM
SK-MEL-5 melanoma
  GI50: 0.371 µM
  TGI: 1.6 µM
UACC-257 melanoma
  GI50: 706 nM
  TGI: 3.16 µM

## O=c1cc(-c2ccccc2)oc2cc(OCCCCCN3CCOCC3)cc(O)c12
786-0 renal
  GI50: 30 µM
  TGI: > 100 µM
MDA-MB-435
  GI50: > 100000 nM
  TGI: > 100 µM
OVCAR-5 ovarian
  GI50: 18.1 µM
  TGI: 95.3 µM
RXF 393 renal
  GI50: 16.8 µM
  TGI: 46.1 µM
SF-268 CNS
  GI50: 75.9 µM
  TGI: > 100 µM
SK-MEL-5 melanoma
  GI50: > 100 µM
  TGI: > 100 µM
UACC-257 melanoma
  GI50: > 100000 nM
  TGI: > 100 µM

## CCn1cc(C(=O)N/N=C/c2cccs2)c(=O)c2cc(F)c(N3CCNC(C)C3)c(F)c21 (configuration not stated)
786-0 renal
  GI50: 1.8 µM
  TGI: 3.38 µM
MDA-MB-435
  GI50: 1780 nM
  TGI: 3.24 µM
NCI-H23 lung
  GI50: 1790 nM
  TGI: 3.47 µM
OVCAR-5 ovarian
  GI50: 1.59 µM
  TGI: 2.97 µM
RXF 393 renal
  GI50: 1.47 µM
  TGI: 3 µM
SF-268 CNS
  GI50: 1.73 µM
  TGI: 3.44 µM
SK-MEL-5 melanoma
  GI50: 1.78 µM
  TGI: 3.19 µM
UACC-257 melanoma
  GI50: 1800 nM
  TGI: 3.43 µM

## C=CCC(N[C@H](CO)c1ccccc1)c1ccccn1 (some centres not stated)
786-0 renal
  GI50: > 100 µM
  TGI: > 100 µM
MDA-MB-435
  GI50: > 100000 nM
  TGI: > 100 µM
NCI-H23 lung
  GI50: > 100000 nM
  TGI: > 100 µM
OVCAR-5 ovarian
  GI50: > 100 µM
  TGI: > 100 µM
RXF 393 renal
  GI50: > 100 µM
  TGI: > 100 µM
SK-MEL-5 melanoma
  GI50: > 100 µM
  TGI: > 100 µM
UACC-257 melanoma
  GI50: > 100000 nM
  TGI: > 100 µM
